Reference: patent publication US7960365B2, “Compounds with medicinal effects due to interaction with the glucocorticoid receptor” (N.V. Organon, priority 2006, dated 2011)

Target: T1, recombinant human-GR (GR) (Homo sapiens, UniProt P04150)
T1 construct: purchased PanVera
T1 sequence (P04150 1-777): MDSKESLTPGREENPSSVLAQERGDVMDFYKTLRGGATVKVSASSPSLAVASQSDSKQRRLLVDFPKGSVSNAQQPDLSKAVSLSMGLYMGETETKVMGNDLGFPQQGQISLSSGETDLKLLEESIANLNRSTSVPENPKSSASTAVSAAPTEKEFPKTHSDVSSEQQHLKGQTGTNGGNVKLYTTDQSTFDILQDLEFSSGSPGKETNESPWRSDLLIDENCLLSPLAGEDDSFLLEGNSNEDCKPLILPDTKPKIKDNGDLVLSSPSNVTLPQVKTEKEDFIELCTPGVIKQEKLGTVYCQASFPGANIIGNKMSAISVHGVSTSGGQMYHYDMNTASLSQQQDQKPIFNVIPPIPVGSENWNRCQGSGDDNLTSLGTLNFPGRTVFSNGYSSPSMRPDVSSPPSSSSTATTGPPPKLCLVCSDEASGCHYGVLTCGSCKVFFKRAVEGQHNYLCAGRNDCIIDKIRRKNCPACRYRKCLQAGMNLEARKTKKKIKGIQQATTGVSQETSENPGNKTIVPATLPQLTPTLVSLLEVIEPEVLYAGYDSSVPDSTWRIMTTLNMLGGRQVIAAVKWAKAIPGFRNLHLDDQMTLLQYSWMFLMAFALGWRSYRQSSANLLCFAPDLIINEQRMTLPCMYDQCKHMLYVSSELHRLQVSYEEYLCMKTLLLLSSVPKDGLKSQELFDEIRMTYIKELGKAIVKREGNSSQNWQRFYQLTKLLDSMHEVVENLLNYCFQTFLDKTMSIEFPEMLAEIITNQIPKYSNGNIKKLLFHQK
Assay: Glucocorticoid Receptor Competitor Assay kit (PanVera), fluorescence polarisation competition binding
Settings: fluormone GS1 1 nM, GR 4 nM, 90 minutes at room temperature
Experimental: The affinity of compounds was tested using a Glucocorticoid Receptor Competitor Assay kit (PanVera®). Components of the kit were thawed from −80° C. on ice (Fluormone GS1, recombinant human-GR (GR)) or at room temperature (GR screening buffer, stabilising peptide and DTT). 10 mM test compounds were manually diluted to 20 μM then serially diluted to a final concentration range of 10 μM to 0.1 nM using the BioMek 2000 (Beckman-Coulter) into a black walled 384 welled plate (Matrix technologies). In the following order: fluormone GS1 (1 nM final concentration) is added to all wells excluding the buffer control wells, GR (4 nM final concentration) is added to all wells except minimum and buffer control wells, cortisol (10 μM final concentration) is added to fluormone GS1 control wells only, buffer is added to all wells to a final volume of 40 μl. The plate is covered and incubated at room temperature with agitation for 90 minutes. Readings were taken using the Analyst (LJL) in fluorescence polarisation reading mode. The MilliP ratio is calculated from cps readings obtained in parallel and perpendicular mode. The percent effect of the bound ligand is calculated at each concentration and the dose response curves plotted allowing the EC50 to be calculated. […]

CC#C[C@]1(O)CC[C@H]2[C@@H]3CCC4=CC(=O)CCC4=C3[C@@H](c3ccc4c(c3)OCO4)C[C@@]21C [(11beta, 17beta)-11-(1,3-benzodioxol-5-yl)-17-hydroxy-17-(1-propynyl)estra-4,9-dien-3-one]
EC50: 10 nM
